Experimental data published in patent US20230133587A1, “Amino Acid Mediated Gene Delivery and Its Uses” (CHINESE INSTITUTE FOR BRAIN RESEARCH, BEIJING, priority 2020, published 2023).

The molecules below were run on astrocytes (assay: Other amino acids promote uptake of plasmid vectors by astrocytes). Details: amino acid solution as vehicle.
Format: in vivo
Method: Other amino acids, including serine, alanine, histidine, γ-aminobutyric acid, proline, lysine, and threonine, are tested. […] From the analysis of the transfection efficiency of various amino acids, it was seen that, except for alanine, the efficiency of L-type amino acids is much higher than that of D-type amino acids (please see FIG. 11).
Histidine, lysine, and arginine, which are also positively charged, are significant differences in delivery efficiency, and gene delivery efficiency of threonine, serine lysine, etc. also has vast differences.

SMILES | uptake of plasmid vectors by astrocytes
C[C@@H](N)C(=O)O [D-Alanine] | promote astrocyte uptake of plasmid vector(s)
N[C@@H](Cc1c[nH]cn1)C(=O)O [L-Histidine] | promote astrocyte uptake of plasmid vector(s)
N[C@@H](CO)C(=O)O [L-Serine] | promote astrocyte uptake of plasmid vector(s)
C[C@@H](O)[C@H](N)C(=O)O [L-Threonine] | promote astrocyte uptake of plasmid vector(s)
C[C@H](N)C(=O)O [alanine] | can efficiently promote astrocytes to take up plasmid vectors
N[C@@H](Cc1c[nH]cn1)C(=O)O [histidine] | can efficiently promote astrocytes to take up plasmid vectors
NCCCC[C@H](N)C(=O)O [lysine] | can efficiently promote astrocytes to take up plasmid vectors
O=C(O)[C@@H]1CCCN1 [proline] | can efficiently promote astrocytes to take up plasmid vectors
N[C@@H](CO)C(=O)O [serine] | can efficiently promote astrocytes to take up plasmid vectors
C[C@@H](O)[C@H](N)C(=O)O [threonine] | can efficiently promote astrocytes to take up plasmid vectors
NCCCC(=O)O [γ-aminobutyric acid] | can efficiently promote astrocytes to take up plasmid vectors
